# “Also recorded” adds a separate entry of the source. Read-outs that look alike come from different tables or passages of the source.
# Key:
# [1] = test system: HIV; experiment: Logistic regression model of probability of success/failure as a function of baseline fold change resistance (clinical cut-offs); format: in vivo
# Excerpt: In such a method, Prob of success is preferably calculated by performing a logistic regression analysis using data from a clinical response dataset, wherein Prob of success is modelled according to the following equation: […]
# (§1) The clinical outcome results (drop in viral load and response rate) were modelled as a function of baseline fold change (FC) as determined by virtual phenotype (see WO01/79540 and WO02/33402; also http://www.vircolab.com). The models applied were linear regression, logistic regression, and a classification tree. These models also took into account effects of the concomitant HIV drugs (PSS), baseline viral load (Baseline Log(V1)i) and, optionally, treatment history in order to avoid bias introduced by imbalances of important characteristics. From the models, a prediction of clinical outcome could be made at different levels of the baseline fold change resistance.
# In the logistic regression, the proposed equation was the following: […]
# However, by binning the viral load into successes and failures, part of the information of the continuous variable viral load is lost. Estimates are also corrected for covariates as for linear regression.
# (§2) The maximum effect was defined as the treatment effect at fold change 1, and the minimum effect was defined as the treatment effect at a very high fold change (i.e. when the curve reached a plateau). The effect range was then the difference between the maximum effect and the minimum effect.
# The lower and higher cutoffs are defined as the fold change associated with an expected 20% and 80% decrease respectively of the reference activity of the drug within the regimen.
# [2] = test system: HIV; format: in vivo; parameters: key to effect range (difference between maximum and minimum effect, log viral load): log viral load drop; max effect (FC 1) minus min effect (plateau); Linear Regression Higher CO / Linear Regression Lower CO: unit not given here
# Excerpt: Databases of studies for patients with tenofovir containing regimens and consisting of patient baseline demographic characteristics, clinical outcome results with viral load and resistance data (Fold change), were retrieved and remapped according to a common structure allowing a meta-analysis. The structure consisted of baseline sequence, viral load data set, viral load measurements and sampling dates (for example viral load within 3 months of starting new regimen and viral load assessment 8 and/or 24 weeks after beginning new regimen), CD4+ data set which contains CD4+ counts and sampling dates, resistance data set containing the fold changes to different antivirals and sampling dates; patient data set with patient information such as age, gender, race, treatment history; treatment data set with drug regimens, start and stop dates, doses, formulations, frequency of intake, regimen changes after resistance tests. The structure of such a clinical data base can be seen in FIG. 1a.
# The viral load response data includes censored (<400 copies/ml) values. Parameters of the underlying uncensored distribution were estimated by maximum likelihood estimation in SAS (proc lifereg). The viral load response data are corrected for baseline viral load and cPSS.
# as §1, with “The” for “The clinical outcome results (drop in viral load and response rate) were modelled as a function of baseline fold change (FC) as determined by virtual phenotype (see WO01/79540 and WO02/33402; also http://www.vircolab.com). The”
# In the linear regression model, the proposed equation was the following: LogVL dropi=β0+β1*Baseline Log(V1)i+β2*PSSi+β3*(1/FC)i+ξi where i represented the patient, β0 the intercept, β1, β2 and β3 coefficients indicated the increase in log viral load drop per unit increase of respectively the baseline log VL, the number of sensitive drugs in the background regimen and the inverse of the baseline fold change. ξi was a random error term indicating the deviation of the patient from the value predicted by the model. Interactions between all the factors were evaluated and other baseline characteristics, i.e treatment history, were added if relevant.
# When viral load results under the detection limits are obtained, biases could be introduced if the detection limit values are considered when calculating viral load drops and using those in the linear regression model. To avoid this, censoring needed to be taken into account and therefore the PROC LIFEREG facility in the SAS package was employed.
# Clinical responses were predicted in the models developed in previous step 2. […] In order to determine the fold changes at which clinically relevant diminished clinical responses can be observed, three definitions of clinical cut-offs were considered:
# as §2
# [3] = Definition 2, Subgroup 1: PSS = 2, baseline Log (VL) = 4
# [4] = Definition 2, Subgroup 2: PSS = 0, baseline Log (VL) = 4
# [5] = Definition 2, Subgroup 3: PSS = 2, baseline Log (VL) = 5
# [6] = Definition 3, Subgroup 1: PSS = 2, baseline Log (VL) = 4
# [7] = Definition 3, Subgroup 2: PSS = 0, baseline Log (VL) = 4
# [8] = Definition 3, Subgroup 3: PSS = 2, baseline Log (VL) = 5
# [9] = Definition 1, Subgroup 2: PSS = 0, baseline Log (VL) = 4
# [10] = Definition 1, Subgroup 3: PSS = 2, baseline Log (VL) = 5
# [11] = Definition 2, Overall (whole population)
# [12] = Definition 2, two active drugs besides the drug, baseline Log(VL) of 4
# [13] = preliminary linear regression analysis, virologic response at 8 weeks
compound,measurement,setting,value
CC(C)OC(=O)OCOP(=O)(CO[C@H](C)Cn1cnc2c(N)ncnc21)OCOC(=O)OC(C)C.O=C(O)/C=C/C(=O)O [TDF],Logistic Regression Higher CO,[1]; [3],3.81
same,Logistic Regression Lower CO,[1]; [3],1.2
same,Logistic Regression Higher CO,[1]; [4],3.36
same,Logistic Regression Lower CO,[1]; [4],1.16
same,Logistic Regression Higher CO,[1]; [5],3.4
same,Logistic Regression Lower CO,[1]; [5],1.17
same,Logistic Regression Lower CO,"[1]; Definition 3, Overall",1.2
same,Logistic Regression Higher CO,[1]; [6],3.81
same,Logistic Regression Lower CO,[1]; [6],1.2
same,Logistic Regression Higher CO,[1]; [7],3.36
same,Logistic Regression Lower CO,[1]; [7],1.2
same,Logistic Regression Higher CO,[1]; [8],3.4
same,Logistic Regression Lower CO,[1]; [8],1.2
same,"Linear Regression Lower CO (clinical cut-off, fold change)","[2]; Definition 1, Subgroup 1: PSS = 2, baseline Log (VL) = 4",3.73
same,"Linear Regression Higher CO (clinical cut-off, fold change)","[2]; Definition 1, Subgroup 1: PSS = 2, baseline Log (VL) = 4, listed as Tenofovir",>assay
same,"Linear Regression Higher CO (clinical cut-off, fold change)","[2]; Definition 1, Subgroup 1: PSS = 2, baseline Log (VL) = 4, listed as tenofovir",No higher cut-off could be derived; also recorded: >assay
same,Linear Regression Higher CO,[2]; [9],3.8
same,Linear Regression Lower CO,[2]; [9],1.68
same,Linear Regression Higher CO,[2]; [10],>assay
same,Linear Regression Lower CO,[2]; [10],>assay
same,Linear Regression Higher CO,[2]; [11],5
same,Linear Regression Lower CO,[2]; [11],1.25
same,Linear Regression Higher CO,[2]; [3],5
same,Linear Regression Lower CO,[2]; [3],1.25
same,Linear Regression Higher CO,[2]; [4],5
same,Linear Regression Lower CO,[2]; [4],1.25
same,Linear Regression Higher CO,[2]; [5],5
same,Linear Regression Lower CO,[2]; [5],1.25
same,drop in log viral load at fold change 1,[2]; [12],−1.48
same,drop in log viral load at the maximum (asymptotic) fold change,[2]; [12],−0.28
same,"effect range (difference between maximum and minimum effect, log viral load)",[2]; [12],1.2
same,Linear Regression Higher CO,"[2]; Definition 3, Overall",5
same,Linear Regression Lower CO,"[2]; Definition 3, Overall",1.1
same,Linear Regression Higher CO,[2]; [6],5
same,Linear Regression Lower CO,[2]; [6],1.1
same,Linear Regression Higher CO,[2]; [7],5
same,Linear Regression Lower CO,[2]; [7],1.1
same,Linear Regression Higher CO,[2]; [8],5
same,Linear Regression Lower CO,[2]; [8],1.1
same,VIROLOGIC RESPONSE Baseline FC for 80% REDUCTION of response (upper cutoff),"[2]; preliminary linear regression analysis, definition 2",2.5
same,"VIROLOGIC RESPONSE 20% REDUCTION (fold change, preliminary VirtualPhenotype Clinical Cutoff)",[2]; [13],1.2
same,"VIROLOGIC RESPONSE 80% REDUCTION (fold change, preliminary VirtualPhenotype Clinical Cutoff)",[2]; [13],2.5
same,lower cut-off derived from the Table,"[2]; summary over models, 2 active drugs besides the drug, baseline log(VL) of 4",1.2

# Source: patent publication US8099262B2, “Estimation of clinical cut-offs” (priority 2004, dated 2012)
